Tests used:
Format in all cases: cell-based, mouse
[1] = tested on: α7 integrin (LacZ reporter in α7+/LacZ myotubes); assay: Myotube α7 integrin FDG assay (Burkin assay in myotubes, 96-well); details: myotubes
[2] = tested on: β-galactosidase in CMV-LacZ C2C12 myoblasts; assay: CMV-LacZ secondary screen in C2C12 myoblasts (β-Gal stabilizing assay); details: CMV-LacZ C2C12 myoblasts
In short: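 A secondary screen identifies compounds that stabilize β-gal independently of the native promoter, using CMV-LacZ C2C12 cells. Curves span 0.5–40 μM at six levels, in duplicate.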

[3] = tested on: β-galactosidase in CMV-LacZ C2C12 myotubes; assay: CMV-LacZ secondary screen in C2C12 myotubes (β-Gal stabilizing assay); details: C2C12 CMV-LacZ myotubes, fold relative to DMSO
In short: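 β-Gal level was the read-out, measured in a clonal C2C12 line expressing LacZ from a CMV promoter. Dose-response curves used six concentrations, 0.5 μM up to 40 μM, with duplicate points.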

[4] = tested on: α7 integrin (LacZ reporter in α7βgal+/− myoblasts); assay: Myoblast α7+/LacZ integrin FDG assay (Burkin assay in myoblasts, 96-well); details: α7+/LacZ myoblasts, 96-well

Structure (SMILES)	Burkin Assay in Myotubes, α7 integrin LacZ reporter signal relative to DMSO ([1]; 0.5 uM)	Burkin Assay in Myotubes, α7 integrin LacZ reporter signal relative to DMSO ([1]; 1 uM)	Burkin Assay in Myotubes, α7 integrin LacZ reporter signal relative to DMSO ([1]; 5 uM)	Burkin Assay in Myotubes, α7 integrin LacZ reporter signal relative to DMSO ([1]; 10 uM)	Burkin Assay in Myotubes, α7 integrin LacZ reporter signal relative to DMSO ([1]; 20 uM)	Burkin Assay in Myotubes, α7 integrin LacZ reporter signal relative to DMSO ([1]; 40 uM)	CMV-LACZ in Myoblasts (β-galactosidase activity relative to DMSO) ([2]; 0.5 uM)	CMV-LACZ in Myoblasts (β-galactosidase activity relative to DMSO) ([2]; 1 uM)	CMV-LACZ in Myoblasts (β-galactosidase activity relative to DMSO) ([2]; 5 uM)	CMV-LACZ in Myoblasts (β-galactosidase activity relative to DMSO) ([2]; 10 uM)	CMV-LACZ in Myoblasts (β-galactosidase activity relative to DMSO) ([2]; 20 uM)	CMV-LACZ in Myoblasts (β-galactosidase activity relative to DMSO) ([2]; 40 uM)	CMV-LACZ in Myotubes, signal relative to DMSO ([3]; 0.5 uM)	CMV-LACZ in Myotubes, signal relative to DMSO ([3]; 1 uM)	CMV-LACZ in Myotubes, signal relative to DMSO ([3]; 5 uM)	CMV-LACZ in Myotubes, signal relative to DMSO ([3]; 10 uM)	CMV-LACZ in Myotubes, signal relative to DMSO ([3]; 20 uM)	CMV-LACZ in Myotubes, signal relative to DMSO ([3]; 40 uM)	Burkin Assay in Myoblasts, signal relative to DMSO ([4]; 0.5 uM)	Burkin Assay in Myoblasts, signal relative to DMSO ([4]; 1 uM)	also measured
CC(C)(C)NC(=O)NC(=O)CN1CCN(Cc2ccccc2)CC1 [MLS001006302-01]	0.9822	0.9373	1.039	1.212	0.7835	1.078	0.9343	0.7663	0.8911	1.0767	0.9502	0.7646	1.0229	0.9143	0.9398	1.0122	0.9010	0.9720	1.123	0.9303	Burkin Assay in Myoblasts, signal relative to DMSO ([4]; 5 uM): 0.9535; Burkin Assay in Myoblasts, signal relative to DMSO ([4]; 10 uM): 1.172; Burkin Assay in Myoblasts, signal relative to DMSO ([4]; 20 uM): 0.973; Burkin Assay in Myoblasts, signal relative to DMSO ([4]; 40 uM): 0.9414
CCOC(=O)c1cc(-c2cccs2)nc2c1c(C)nn2-c1ccccn1 [MLS001006516-01]	0.9261	0.8714	0.9257	0.9085	0.7127	0.7127	1.0038	0.8858	0.9829	0.9076	0.4956	0.6589	0.9581	0.9257	0.9283	0.8542	0.9032	0.9484	1.097	1.134	Burkin Assay in Myoblasts, signal relative to DMSO ([4]; 5 uM): 0.8796; Burkin Assay in Myoblasts, signal relative to DMSO ([4]; 10 uM): 0.7932; Burkin Assay in Myoblasts, signal relative to DMSO ([4]; 20 uM): 0.6928; Burkin Assay in Myoblasts, signal relative to DMSO ([4]; 40 uM): 0.4802
COc1ccccc1C(=O)OCc1ccc2sc(C)nc2c1 [MLS001006798-01]	0.9345	1.042	1.06	0.8906	0.9746	0.8886	0.8334	1.0326	1.1509	1.0189	0.9622	0.8263	1.0419	0.9648	1.2236	1.0267	0.9953	1.0976	1.191	0.9282	Burkin Assay in Myoblasts, signal relative to DMSO ([4]; 5 uM): 1.133; Burkin Assay in Myoblasts, signal relative to DMSO ([4]; 10 uM): 1.008; Burkin Assay in Myoblasts, signal relative to DMSO ([4]; 20 uM): 1.118; Burkin Assay in Myoblasts, signal relative to DMSO ([4]; 40 uM): 1.016
CCCC(=O)OCC(=O)c1[nH]c(C)c(C(C)=O)c1C [MLS001007892-01]	0.9046	1.013	0.9742	1.075	0.8343	0.9888	0.9338	0.8108	1.0511	1.1495	0.6390	0.4953	1.1673	0.9291	1.0066	0.9543	1.2170	1.0540	1.127	1.037	Burkin Assay in Myoblasts, signal relative to DMSO ([4]; 5 uM): 1.016; Burkin Assay in Myoblasts, signal relative to DMSO ([4]; 10 uM): 1.23; Burkin Assay in Myoblasts, signal relative to DMSO ([4]; 20 uM): 0.7225; Burkin Assay in Myoblasts, signal relative to DMSO ([4]; 40 uM): 0.4983
CCOC(=O)c1cc(C(=O)OCC)c(=O)[nH]c1SCc1ccccc1 [MLS001008109-01]	0.9247	0.9146	1.182	0.9335	0.8264	0.6103	0.9542	1.1138	0.9228	1.2178	0.8730	0.7619	1.0621	1.0168	0.9839	0.9289	1.0756	1.0600	0.8481	0.78	Burkin Assay in Myoblasts, signal relative to DMSO ([4]; 5 uM): 1.002; Burkin Assay in Myoblasts, signal relative to DMSO ([4]; 10 uM): 0.8626; Burkin Assay in Myoblasts, signal relative to DMSO ([4]; 20 uM): 0.826; Burkin Assay in Myoblasts, signal relative to DMSO ([4]; 40 uM): 0.8306
